Assay results: paper PMC11219871, “Epigenetic-based differentiation therapy for Acute Myeloid Leukemia” (Nature Communications, 2024)
Where “and” joins values, the source holds several entries; their conditions need not be identical. Equal values may be shown once. Read-outs that look alike come from different tables or passages of the source.

Experiments:
[1] = tested on: MOLM-13; experiment: Cell proliferation assay: GI50; assay type: cell-based, human
Procedure: (§1) Cell proliferation was analyzed using the CellTiter 96 Aqueous One Solution Cell Proliferation Assay (Promega, Madison, WI). This is a colorimetric method for determining the number of viable cells in proliferation. For the assay, suspension cells were cultured in triplicate at a density of 1 × 10^6 cells/mL in 96-well plates (100.000 cells/well, 100 µL/well), using only the 60 inner wells to avoid any border effects. […] Then, the cells were incubated with 100 μL/well of medium and 20 μL/well of CellTiter 96 Aqueous One Solution reagent for 1–3 h. […] The background absorbance was measured in wells with only cell line medium and solution reagent. First, the average of the absorbance from the control wells was subtracted from all other absorbance values. Data were calculated as the percentage of total absorbance of treated cells/absorbance of non-treated cells. The GI50 values of the different compounds were determined using non-linear regression plots made with GraphPad Prism v5 software.

[2] = tested on: HL-60; experiment: Cell proliferation assay: GI50; assay type: cell-based, human
Procedure: as §1

[3] = tested on: ML-2; experiment: Cell proliferation assay: GI50; assay type: cell-based, human
Procedure: as §1

[4] = tested on: MV4-11; experiment: Cell proliferation assay: GI50; assay type: cell-based, human
Procedure: as §1

[5] = tested on: M-O7e; experiment: Differentiation assay, CD11b / annexin-V flow cytometry; assay type: cell-based; conditions: MO7e cell line; replicates 1-3 (Figure 2A);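 further: daily treatment at a GI50-based fraction of each compound's GI50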
Procedure: (§2) Next, the cells were washed twice with phosphate-buffered saline (PBS) and resuspended in 1X Binding Buffer at a concentration of 1 × 10^6 cells/mL. An 8-µL aliquot of APC-CD11b (BD Pharmingen, Franklin Lakes, NJ, USA) and 1 µL of FITC annexin-V (AV) (BD Pharmingen, Franklin Lakes, NJ, USA) antibodies were added and incubated for 15 min at room temperature in the dark. Finally, after the addition of 400 µL of 1X Binding Buffer to each tube, samples were collected on a BD FACSCanto flow cytometer (Becton Dickinson, San Jose, CA, USA) and analyzed using FlowJo software.

[6] = tested on: NB-4; experiment: as above; assay type: cell-based; conditions: for CD11b (%): NB4 cell line, replicates 1-3 (Figure 2A)
Procedure: as §2

[7] = tested on: GF-D8; experiment: as above; assay type: cell-based; conditions: GF-D8 cell line; replicates 1-3 (Figure 2A);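 further: daily treatment at a GI50-based fraction of each compound's GI50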
Procedure: as §2

[8] = target: T1, HDAC8 (Homo sapiens, UniProt Q9BY41); experiment: HDAC assay (Eurofins); assay type: biochemical
T1 construct: purchased Eurofins (contracted assay service)
T1 sequence (Q9BY41 1-377): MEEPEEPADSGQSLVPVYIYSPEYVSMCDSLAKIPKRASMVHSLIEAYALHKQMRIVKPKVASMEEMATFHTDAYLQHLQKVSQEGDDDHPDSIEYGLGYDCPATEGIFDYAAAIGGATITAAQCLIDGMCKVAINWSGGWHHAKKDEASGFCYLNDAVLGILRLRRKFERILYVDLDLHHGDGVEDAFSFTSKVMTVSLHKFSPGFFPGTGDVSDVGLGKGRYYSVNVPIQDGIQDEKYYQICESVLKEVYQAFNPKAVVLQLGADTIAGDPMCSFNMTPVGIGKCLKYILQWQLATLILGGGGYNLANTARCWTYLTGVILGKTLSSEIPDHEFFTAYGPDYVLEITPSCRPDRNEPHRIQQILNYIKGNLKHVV

[9] = tested on: ML-2; experiment: Proteome analysis (LC-MS/MS); assay type: cell-based, human; conditions: ML-2, 25% GI50, 12 h
Procedure: After cooling down, lysates were incubated at 25 °C with 10 units of DNAse (Benzonase, Merk) and sonicated for 15 min in a Bioruptor for DNA shearing. Protein concentration was determined using microBCA, using BSA as standard. […] LysC, Wako). […] Peptides (500 μg) were labeled with Thermo Scientific […] Isobaric reagents for 1 h at 25 C. […] The final mixture was desalted using a 500 mg Sep-Pak C18t cartridge (Waters) and dried prior to high pH reverse phase HPLC pre-fractionation. Labeled peptides were fractionated offline through a high pH reverse phase chromatography using an Ultimate 3000 HPLC system equipped with a sample collector. Briefly, peptides were dissolved in 1200 μL of Buffer A (10 mM NH4OH) and loaded onto a XBridge BEH130 C18 column (3.5 μm, 250 mm length and 3.5 mm ID, Waters). […] One-minute fractions (500 μL) from minute 15 to 65 were collected and neutralized with 10% formic acid. […] Pooled fractions were snap-frozen and lyophilized. LC-MS/MS was done by coupling an UltiMate 3000 RSLCnano LC system to an Orbitrap Exploris 480 mass spectrometer (Thermo Fisher Scientific). […] The mass spectrometer was operated in a data-dependent mode, with an automatic switch between MS and MS/MS scans using a top 15 method. (Intensity threshold ≥ 1e4, dynamic exclusion of 20 sec and excluding charges unassigned, +1 and ≥ +7). MS spectra were acquired from 350 to 1500 m/z with a resolution of 60,000 FMHW (200 m/z). Ion peptides were isolated using a 0.7 Th window and fragmented using higher-energy collisional dissociation (HCD) with a normalized collision energy NCE of 36. MS/MS spectra were acquired with a fixed first mass of 120 m/z and a resolution of 45,000 FMHW (200 m/z). […] For total protein analysis, raw files were processed with MaxQuant (v 2.4.9.0) using the standard settings against the same protein database. […] Briefly, proteins/sites with less than eighteen valid values were filtered out. Then, a global normalization of log2-transformed intensities across samples was performed using the LOESS function. Differential analysis was done using the empirical Bayes statistics Limma. […] The FDR was estimated to be below 2% by Benjamini-Hochberg.

[10] = Homo sapiens, MOLM-13, MOLM-13, replicates 1-3
[11] = HL-60, replicates 1-3, read-out: GI50
[12] = Homo sapiens, HL-60, 48 h, read-out: GI50
[13] = Homo sapiens, HL-60, HL-60, replicates 1-3, read-out: GI50
[14] = Homo sapiens, ML-2, ML-2, replicates 1-3
[15] = Homo sapiens, MV4-11, MV4-11, replicates 1-3
[16] = Homo sapiens, HL-60, 48 h, 48 h, read-out: HL-60 GI50

GI50 ([1]; Homo sapiens, MOLM-13, 48 h) [nM] | GI50 [2, 12] [nM] | SMILES | GI50 [1, 10] [nM] | GI50 ([1]; MOLM-13, replicates 1-3) | GI50 [2, 11] | GI50 [2, 13] [nM] | GI50 ([3]; Homo sapiens, ML-2, 48 h) [nM] | GI50 [3, 14] [nM] | GI50 ([3]; ML-2, replicates 1-3) | GI50 ([4]; Homo sapiens, MV4-11, 48 h) [nM] | GI50 [4, 15] [nM] | GI50 ([4]; MV4-11, replicates 1-3) | CD11b (%) [5] | CD11b (%) [6] | CD11b (%) [7] | IC50 [8] [nM] | inhibition at 10 µM [8] [%] | GI50 [2, 16] [nM] | proteins significantly regulated, of 8342 quantified [9] [%] | also measured
> 10000 | > 10000 | CC1=C(/C=C/C(C)=C/C=C/C(C)=C/C(=O)O)C(C)(C)CCC1 [ATRA, all-trans retinoic acid, reference compound] | > 10000 | > 10000 nM | > 10000 nM | > 10000 | > 10000 | > 10000 | > 10000 nM | > 10000 | > 10000 | > 10000 nM | 0.25% and 2.3% and 4.5% | 89.2% and 76.4% and 74.85% | 5.2% and 12.5% and 12.9% |  |  |  |  | differentiation (CD11b) ([6]; NB-4, daily 25% GI50, 48 h): induced differentiation
 |  | COc1cc2nc(-c3ccc(C)o3)cc(NCC3CCN(c4ncc(C(=O)NO)cn4)CC3)c2cc1OC [CM-444, 2-[4-[[[6,7-dimethoxy-2-(5-methyl-2-furyl)-4-quinolyl]amino]methyl]-1-piperidyl]pyrimidine-5-carbohydroxamic acid] | 1370 | 1120 nM and 883 nM | 987 nM and 1020 nM | 1260 |  | 988 | 1150 nM and 956 nM | 621 | 458 | 765 nM and 641 nM | 5.2% and 11.2% and 10.9% | 46.5% and 38.3% and 33.9% | 26.5% and 25.8% and 22.1% | 83 | 100 | 1090 | 9.5 | 
 |  | Cc1[nH]c2ccccc2c1CCNCc1ccc(/C=C/C(=O)NO)cc1 [Panobinostat, reference compound] |  |  |  |  |  |  |  |  |  |  |  |  |  |  |  |  | 5.8 | GI50 ([1]; Homo sapiens, MOLM-13, MOLM-13): 32 nM; GI50 ([1]; Homo sapiens, MOLM-13, MOLM-13, replicates 1-3, nM for Panobistat and Quisinostat): 23.2 nM; GI50 ([1]; MOLM-13, replicates 1-3, nM for Panobistat and Quisinostat): 41.5 nM and 31.3 nM; GI50 ([2]; HL-60, replicates 1-3, nM for Panobistat and Quisinostat, read-out: GI50): 15.6 nM and 19.3 nM; GI50 ([2]; Homo sapiens, HL-60, HL-60, replicates 1-3, nM for Panobistat and Quisinostat, read-out: GI50): 19.1 nM; GI50 ([2]; Homo sapiens, HL-60, HL-60, read-out: GI50): 18 nM; GI50 ([3]; Homo sapiens, ML-2, ML-2): 51.6 nM; GI50 ([3]; Homo sapiens, ML-2, ML-2, replicates 1-3, nM for Panobistat and Quisinostat): 46.8 nM; GI50 ([3]; ML-2, replicates 1-3, nM for Panobistat and Quisinostat): 65.3 nM and 42.7 nM; GI50 ([4]; Homo sapiens, MV4-11, MV4-11): 13 nM; GI50 ([4]; Homo sapiens, MV4-11, MV4-11, replicates 1-3, nM for Panobistat and Quisinostat): 14.5 nM; GI50 ([4]; MV4-11, replicates 1-3, nM for Panobistat and Quisinostat): 13.3 nM and 11.2 nM
3200 | 5200 | O=C(CCCCCCC(=O)Nc1ccccc1)NO [Vorinostat, reference compound] |  |  |  |  | 4500 |  |  | 2500 |  |  |  |  |  |  |  |  | 2.7 | GI50 ([1]; Homo sapiens, MOLM-13, MOLM-13, replicates 1-3, µM for the other inhibitors): 3100 nM; GI50 ([1]; MOLM-13, replicates 1-3, µM for the other inhibitors): 3000 nM and 3600 nM; GI50 ([2]; HL-60, replicates 1-3, µM for the other inhibitors, read-out: GI50): 4900 nM and 5600 nM; GI50 ([2]; Homo sapiens, HL-60, HL-60, replicates 1-3, µM for the other inhibitors, read-out: GI50): 5100 nM; GI50 ([3]; Homo sapiens, ML-2, ML-2, replicates 1-3, µM for the other inhibitors): 4300 nM; GI50 ([3]; ML-2, replicates 1-3, µM for the other inhibitors): 4200 nM and 5000 nM; GI50 ([4]; Homo sapiens, MV4-11, MV4-11, replicates 1-3, µM for the other inhibitors): 2700 nM; GI50 ([4]; MV4-11, replicates 1-3, µM for the other inhibitors): 2900 nM and 2000 nM

SMILES | GI50 ([1]; Homo sapiens, MOLM-13, 48 h) [nM] | GI50 [2, 12] [nM] | GI50 [1, 10] [nM] | GI50 ([1]; MOLM-13, replicates 1-3) | GI50 [2, 11] | GI50 [2, 13] [nM] | GI50 ([3]; Homo sapiens, ML-2, 48 h) [nM] | GI50 [3, 14] [nM] | GI50 ([3]; ML-2, replicates 1-3) | GI50 ([4]; Homo sapiens, MV4-11, 48 h) [nM] | GI50 [4, 15] [nM] | GI50 ([4]; MV4-11, replicates 1-3) | CD11b (%) [5] | CD11b (%) [6] | CD11b (%) [7] | IC50 [8] [nM] | inhibition at 10 µM [8] [%] | GI50 [2, 16] [nM] | proteins significantly regulated, of 8342 quantified [9] [%] | also measured
COc1cc2nc(-c3cc(C)oc3C)cc(NCC3CCN(c4ncc(C(=O)NO)cn4)CC3)c2cc1OC [CM-1758, 2-[4-[[[2-(2,5-dimethyl-3-furyl)-6,7-dimethoxy-4-quinolyl]amino]methyl] -1-piperidyl]pyrimidine-5-carbohydroxamic acid] | 558 |  | 412 | 685 nM and 576 nM | 1020 nM and 1180 nM | 1360 | 844 | 869 | 812 nM and 849 nM | 292 |  | 498 nM and 125 nM and 252 nM | 17.02% and 15.8% and 12.9% | 41.82% and 48.2% and 36.4% | 27.3% and 20% and 28.6% | 200 | 100 | 1190 | 8.8 | 
